Several values for one entry are separate records, joined by “and”; a condition that tells them apart may be missing. Equal values may be shown once.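 Five concentrations, 48 hours, 96-well plates. GI50 marks 50% less growth.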 Activity calls are given as the source filed them. Rule as the data show it: active = GI50 up to about 1.1 µM and inactive = higher.
Columns and labels:
Test in all cases: NCI tumour cell line growth inhibition, 48 h
[1] = tested on: ACHN
[2] = tested on: CAKI-1
[3] = tested on: CCRF-CEM
[4] = tested on: COLO 205
[5] = tested on: EKVX
[6] = tested on: HCC 2998
[7] = tested on: HL-60
[8] = tested on: K562
[9] = tested on: NCI-H23
[10] = tested on: OVCAR-3
[11] = tested on: RXF 393
[12] = tested on: SK-MEL-2
[13] = tested on: SW-620
[14] = tested on: UACC-62
[15] = tested on: UO-31
[16] = tested on: HCT-15

| SMILES | GI50 [1] | GI50 [2] | GI50 [3] | GI50 [4] | GI50 [5] | GI50 [6] | GI50 [7] | GI50 [8] | GI50 [9] | GI50 [10] | GI50 [11] | GI50 [12] | GI50 [13] | GI50 [14] | GI50 [15] | GI50 [16] |
| --- | --- | --- | --- | --- | --- | --- | --- | --- | --- | --- | --- | --- | --- | --- | --- | --- |
| CC(=O)CC(=O)N(CCN(C(=O)CC(C)=O)c1ccccc1)c1ccccc1 | > 100 µM (inactive) | > 100 µM (inactive) | 58.2 µM (inactive) | > 100 µM (inactive) | > 100 µM (inactive) | > 100 µM (inactive) | 43.4 µM (inactive) | > 100 µM (inactive) | > 100 µM (inactive) | > 100 µM (inactive) | > 100 µM (inactive) | > 100 µM (inactive) | > 100 µM (inactive) | > 100 µM (inactive) | > 100 µM (inactive) |  |
| CC1=CCCC2C(C=O)(C1)CC(C)C2(CO)CC/C(=C/CO)CO (stereo not given) | > 100 µM (inactive) | 57.3 µM (inactive) | 71.9 µM (inactive) | > 100 µM (inactive) | > 100 µM (inactive) | > 100 µM (inactive) |  | 89.5 µM (inactive) | 90.6 µM (inactive) | > 100 µM (inactive) | > 100 µM (inactive) |  | > 100 µM (inactive) | > 100 µM (inactive) | 24.9 µM (inactive) | > 100 µM |
| C\C=C/C=C/C=C/C(=O)O | > 100 µM (inactive) | > 100 µM (inactive) | > 100 µM (inactive) | > 100 µM (inactive) | 67.3 µM (inactive) | > 100 µM (inactive) | > 100 µM (inactive) | > 100 µM (inactive) | > 100 µM (inactive) | > 100 µM (inactive) | > 100 µM (inactive) | > 100 µM (inactive) | > 100 µM (inactive) | > 100 µM (inactive) | > 100 µM (inactive) | > 100 µM |
| COc1c(O)c2c3c(c(C)cc(O)c3c1O)C(=O)C(O)(C(C)(C)C(C)=O)C2=O (stereo not given) | > 100 µM (inactive) | > 100 µM (inactive) | 61.9 µM (inactive) and 57 µM (inactive) | > 100 µM (inactive) |  |  | 51.4 µM (inactive) and 50.9 µM (inactive) |  | > 100 µM (inactive) | > 100 µM (inactive) | > 100 µM (inactive) | > 100 µM (inactive) | > 100 µM (inactive) |  | > 100 µM (inactive) | > 100 µM |
| CC1(O)CC2C(CC1SC1CC3C(CC1(C)O)C3(C)C)C2(C)C (stereo not given) | 35 µM (inactive) |  | 27 µM (inactive) | 35.5 µM (inactive) | 32.5 µM (inactive) | 33.6 µM (inactive) | 22.9 µM (inactive) | 30.5 µM (inactive) | 41.7 µM (inactive) | 38.8 µM (inactive) |  | 40.1 µM (inactive) |  |  | 24 µM (inactive) | 39.1 µM |
| CC1=C(C(=O)NCc2ccccc2)C(c2ccc(Cl)c(Cl)c2)C(C(=O)NCc2ccccc2)=C(C)N1 | > 100 µM (inactive) |  | > 100 µM (inactive) |  | > 100 µM (inactive) | > 100 µM (inactive) | > 100 µM (inactive) | > 100 µM (inactive) | > 100 µM (inactive) | > 100 µM (inactive) | > 100 µM (inactive) | > 100 µM (inactive) | > 100 µM (inactive) | > 100 µM (inactive) | > 100 µM (inactive) | > 100 µM |
| Clc1ccc(OCc2nnc3n2N=C(c2ccccc2)CS3)cc1 | 10.9 µM (inactive) | 24.9 µM (inactive) |  | 15.3 µM (inactive) |  | 16.6 µM (inactive) | 13 µM (inactive) | 12.7 µM (inactive) | 12.2 µM (inactive) | 16.9 µM (inactive) |  | 18 µM (inactive) | 14.7 µM (inactive) | 11.1 µM (inactive) | 5.42 µM (inactive) | 13.8 µM |
| Cc1cccc(C)c1NC(=O)CCC(=O)/N=C(\N)NC#N | > 100 µM (inactive) | > 100 µM (inactive) | > 100 µM (inactive) | > 100 µM (inactive) | > 100 µM (inactive) | > 100 µM (inactive) | > 100 µM (inactive) | > 100 µM (inactive) | > 100 µM (inactive) | > 100 µM (inactive) | > 100 µM (inactive) |  | > 100 µM (inactive) | > 100 µM (inactive) | > 100 µM (inactive) | > 100 µM |
| O=C1C2C(C(=O)N1c1ccccc1)C1([N+](=O)[O-])C=C3c4ccccc4N(C(=O)c4ccccc4)C32C2C(=O)N(c3ccccc3)C(=O)C21 (stereo not given) | > 100 µM (inactive) | > 100 µM (inactive) | > 100 µM (inactive) | > 100 µM (inactive) |  | > 100 µM (inactive) | > 100 µM (inactive) | > 100 µM (inactive) | > 100 µM (inactive) | > 100 µM (inactive) |  | > 100 µM (inactive) | > 100 µM (inactive) | > 100 µM (inactive) | > 100 µM (inactive) | > 100 µM |
| CC(=O)Oc1ccc(Nn2c3ccccc3c3ccccc32)c(C)c1 |  |  | 29.8 µM (inactive) | 31.7 µM (inactive) |  | 27.7 µM (inactive) | 22.3 µM (inactive) | 32.1 µM (inactive) | 38.2 µM (inactive) | 42.6 µM (inactive) | 29.5 µM (inactive) | 37 µM (inactive) | 25.2 µM (inactive) | 51.5 µM (inactive) | 39.1 µM (inactive) | 24.6 µM |
| CC(C)N(C(=O)C12C3C4C1C1C2C3C41I)C(C)C (stereo not given) | > 100 µM (inactive) | > 100 µM (inactive) | > 100 µM (inactive) | > 100 µM (inactive) | > 100 µM (inactive) | > 100 µM (inactive) | > 100 µM (inactive) | > 100 µM (inactive) | > 100 µM (inactive) | > 100 µM (inactive) |  |  | > 100 µM (inactive) | > 100 µM (inactive) | > 100 µM (inactive) |  |
| COC(=O)C1=C(O)c2cc3c(cc2[C@H](c2cc(OC)c(OC)c(OC)c2)C1)OCO3 | 23.1 µM (inactive) | 34.8 µM (inactive) | 38.1 µM (inactive) | 19.3 µM (inactive) |  | 1.23 µM (inactive) | 14.3 µM (inactive) | 22.5 µM (inactive) | 41.7 µM (inactive) | 19 µM (inactive) | 57.9 µM (inactive) |  | 61.4 µM (inactive) | 5.74 µM (inactive) | 3.24 µM (inactive) | 25.2 µM |
| CC1CCCC(C(O)CC2CC(=O)N(c3ccccc3)C(=O)C2)C1=O (stereo not given) | > 100 µM (inactive) | > 100 µM (inactive) | > 100 µM (inactive) | > 100 µM (inactive) | > 100 µM (inactive) | > 100 µM (inactive) | > 100 µM (inactive) | > 100 µM (inactive) | > 100 µM (inactive) | > 100 µM (inactive) | > 100 µM (inactive) |  | > 100 µM (inactive) | > 100 µM (inactive) | > 100 µM (inactive) |  |
| CCN(c1n[n+]2c(-c3ccccc3)csc2s1)c1n[n+]2c(-c3ccccc3)csc2s1 | > 100 µM (inactive) |  | 32.5 µM (inactive) | 26.4 µM (inactive) | > 100 µM (inactive) | > 100 µM (inactive) | 22.3 µM (inactive) | 17.5 µM (inactive) | 44.6 µM (inactive) | 71.8 µM (inactive) | 65.9 µM (inactive) | 44.1 µM (inactive) | 94.6 µM (inactive) | > 100 µM (inactive) | > 100 µM (inactive) | > 100 µM |
| Cc1c(C(=O)/C=C/c2ccccc2)[n+]([O-])c2ccccc2[n+]1[O-] | 17.7 µM (inactive) | 17.5 µM (inactive) | 22.2 µM (inactive) | 16.3 µM (inactive) | 14.9 µM (inactive) | 16.6 µM (inactive) | 13.9 µM (inactive) | 15.6 µM (inactive) | 15.7 µM (inactive) | 15.1 µM (inactive) | 2.07 µM (inactive) |  | 14.8 µM (inactive) | 15.1 µM (inactive) | 20 µM (inactive) |  |
| CN1C(=O)C(=CN(C)c2ccccc2)C(=O)N(C)C1=O | > 100 µM (inactive) | 30.1 µM (inactive) | 40.4 µM (inactive) |  | 65.8 µM (inactive) | > 100 µM (inactive) | 51.1 µM (inactive) | > 100 µM (inactive) |  | 90.4 µM (inactive) | 69 µM (inactive) | > 100 µM (inactive) | 80.5 µM (inactive) | 91.6 µM (inactive) | > 100 µM (inactive) | > 100 µM |
| Fc1cccc(/C=N/C23CC4CC(CC(C4)C2)C3)c1 | > 100 µM (inactive) | > 100 µM (inactive) | > 100 µM (inactive) | > 100 µM (inactive) | > 100 µM (inactive) | > 100 µM (inactive) | > 100 µM (inactive) | > 100 µM (inactive) | > 100 µM (inactive) | > 100 µM (inactive) | > 100 µM (inactive) | > 100 µM (inactive) |  | > 100 µM (inactive) | > 100 µM (inactive) | > 100 µM |
| CC1(Cl)CC(C)(/C=C/Cl)C(Cl)CC1Cl (stereo not given) | 14.7 µM (inactive) | 16.1 µM (inactive) | 19.1 µM (inactive) |  | 12.1 µM (inactive) | 17.1 µM (inactive) |  | 9.79 µM (inactive) | 19.8 µM (inactive) | 14.5 µM (inactive) | 14.8 µM (inactive) | 13.5 µM (inactive) | 15.7 µM (inactive) | 16.1 µM (inactive) | 16.1 µM (inactive) | 14.1 µM |
| CCOc1ccccc1NC(=O)C1=C(C)NC(C)=C(C(=O)Nc2ccccc2OCC)C1c1cccc([N+](=O)[O-])c1 | 29.9 µM (inactive) | 5.9 µM (inactive) | 37.9 µM (inactive) | > 100 µM (inactive) | 30.1 µM (inactive) | 36.6 µM (inactive) | 30.5 µM (inactive) | 28.2 µM (inactive) | > 100 µM (inactive) | 80.9 µM (inactive) | 47.4 µM (inactive) | 39.3 µM (inactive) | 42.6 µM (inactive) |  | 28.2 µM (inactive) |  |
